In patent US20250002854A1, “METHODS OF GENERATING POPULATIONS OF TUMOUR-INFILTRATING T CELLS” (LYTIX BIOPHARMA AS, priority 2016, published 2025):
Square brackets hold non-standard residues; d marks the D form. Ends that are not written are not given here. Dip = N[C@H](C(=O)O)C(c1ccccc1)c1ccccc1

What was measured:
MDA-MB-435S = assay: In vitro cytotoxicity, MTT assay; assay type: cell-based; conditions: MDA-MB-435S human malignant melanoma
Source text: (§1) JM1, a rat hepatocellular carcinoma, HEPG2 and BEL7402, both human hepatocellular carcinomas, were kindly provided by Dr. Pål-Dag Line, Director, Department of Transplantation Medicine, Oslo University Hospital. B16F1 (ATCC, CRL-6323), a murine skin malignant melanoma, MDA-MB-435S (HTB-129), a human malignant melanoma originating from a breast metastases, Malme-3M (HTB-64), a human malignant melanoma derived from a lung metastases, MRC-5 (ATCC, CCL-171), normal human lung fibroblasts, SK-N-AS (ATCC, CRL-2137), a human neuroblastoma cell line derived from a bone marrow metastases, HT-29 (ATCC, HTB-38), a human colorectal adenocarcinoma and HUV-EC-C (ATCC, CRL-1730), a human vascular endothelium cell line, were all purchased from the American Type Culture Collection (ATCC-LGC Standards, Rockville, MD, USA). HaCat, a human keratinocyte cell line, was kindly provided by Dr. Ingvild Pettersen, Department of Host Microbe Interactions, University of Tromsø. A375, a malignant melanoma cell line of human origin, was purchased from Public Health England (PHE Culture Conditions, Porton, Down, Salisbury, UK). JM1, A375, BEL7402, HEPG2 and B16F1 were all maintained in culture media consisting of DMEM (high glucose), while SK-N-AS, HT-29 and MDA-MB-435S were cultured in an RPMI-1640 medium containing 2 mM L-glutamine and sodium bicarbonate. Malme-3M was cultured in RPMI-1640, containing 4 mM L-glutamine and 20% FBS (fetal bovine serum). Lastly, the three non-malignant cell lines, HUV-EC-C, MRC-5 and HaCat, were cultured, respectively, using the EGM-2 BulletKit (Lonza, MA), containing basal media and growth factors, MEM (normal glucose) also containing 2 mM L-glutamine and 1% non-essential amino acids and DMEM (normal glucose) containing 2 mM L-glutamine. All media were (if not specified otherwise) supplemented with 10% FBS, with the exception of the EGM-2 BulletKit, which is delivered with an aliquot of 10 ml FBS to yield a final concentration of 2% FBS in solution. […]

HEPG2 = assay: In vitro cytotoxicity, MTT assay; assay type: cell-based; conditions: HEPG2 human hepatocellular carcinoma
Source text: as §1

B16F1 melanoma cells = assay: Kill kinetics (MTT); assay type: cell-based, murine
Experimental: Cells were seeded as previously described for MTT assay, and incubated with LTX-401 solutions for 5, 15, 30, 60, 90, 120 and 240 minutes. Cells were washed once with 100 μl of serum-free RPMI-1640 after incubation, and further incubated in a 10% MTT solution (diluted in a serum-free RPMI-1640) for an additional 2 h.

[1] = previous studies by Ausbaucher et al.; cited from earlier work
B16F1 cells [2] = assay: Release of ATP (luciferin-luciferase); assay type: cell-based, murine; conditions: 54 μM, up to 120 min
Experimental: Serum-free RPMI 1640 treated cells functioned as a negative and blank control, respectively. Extracellular levels of ATP were measured at the end of the experiment using a luciferin-based ENLITEN ATP Assay kit (Promega, Madison, WI, USA), in which ATP-driven chemoluminescence was recorded on a Luminescence Microplate Reader (Labsystems Luminoskan®, Finland), and expressed as relative light units (RLU).

B16F1 cells [3] = assay: In vitro cytotoxicity, MTT assay (IC50 4h); assay type: cell-based, murine; conditions: B16F1, 4 h
Source text: as §1, with “bicarbonate.” for “bicarbonate. Malme-3M was cultured in RPMI-1640, containing 4 mM L-glutamine and 20% FBS (fetal bovine serum). Lastly, the three non-malignant cell lines, HUV-EC-C, MRC-5 and HaCat, were cultured, respectively, using the EGM-2 BulletKit (Lonza, MA), containing basal media and growth factors, MEM (normal glucose) also containing 2 mM L-glutamine and 1% non-essential amino acids and DMEM (normal glucose) containing 2 mM L-glutamine. All media were (if not specified otherwise) supplemented with 10% FBS, with the exception of the EGM-2 BulletKit, which is delivered with an aliquot of 10 ml FBS to yield a final concentration of 2% FBS in solution.”

MCA205 sarcoma = conditions: mouse, in vivo
Experimental: Mice were subcutaneously injected into the right flank with 1×10^6 MCA205 cells. Tumour cell lines were inoculated into C57BL/6 mice. Tumour surfaces (longest dimension×perpendicular dimension) were routinely monitored by caliper. When tumours reached a size of 20-25 mm^2 (day 0), mice were administered intratumourally with three consecutive daily injections of 300 μg LTX-315. In T-cell depletion experiments (FIG. 24), anti-CD4 and anti-CD8 monoclonal antibodies (mAbs) (GK1.5 and 53-6.72, respectively; 200 μg per mouse) or their isotype controls (LTF-2 and 2A3, respectively) were injected intraperitoneally 3 and 4 days before the first LTX-315 injection and continued every other 7 days. All mAbs for in vivo use were obtained from BioXcell (West Lebanon, NH, USA), using the recommended isotype control mAbs.
Tumours and spleens were harvested 7 days after the first injection of LTX-315. Excised tumours were cut into small pieces and digested in RPMI-1640 medium containing Liberase at 25 μg/ml (Roche, Boulogne-Billancourt, France) and DNase1 at 150 UI/ml (Roche) for 30 min at 37° C. The mixture was subsequently passaged through a 100 μm cell strainer. […] All cells were analysed on a CyAn ADP (Beckman Coulter, Marseille, France) flow cytometer with FlowJo (Tree Star, Ashland, OR) software.

Compound | IC50 (MDA-MB-435S) [µM] | IC50 (HEPG2) [µM] | cell survival (B16F1 melanoma cells; 54 μM, after two hours) [%] | time until cellular survival reduced to a minimum (B16F1 melanoma cells; 108 μM) [min] | kill ratio (B16F1 melanoma cells; 108 μM, after 15 min) [%] | cell death (B16F1 melanoma cells; 108 μM, two hours after start of treatment) [%] | mitochondrial membrane potential (TMRE) [1] | extracellular concentration of ATP (B16F1 cells [2]) | IC50 (B16F1 cells [3]) [µM] | cytotoxic CD4+ TILs in tumour beds (IFNγ+, IL-17+, IFNγ+ IL-17+) (MCA205 sarcoma) | cytotoxic CD8+ TILs in tumour beds (IFNγ+, TNFα+, IFNγ+ TNFα+) (MCA205 sarcoma)
Cl.Cl.NCCNC(=O)C(CN)(CCCc1ccccc1)CCCc1ccccc1 [LTX-401] | 13.5 | 35.4 | 50 | 90 to 120 | 50 | ~100 | did not compromise the mitochondrial membrane potential | quickly rose 60 min after initiating treatment | 27 | – | –
K-K-W-W-K-K-W-Dip-K-NH2 (KKWWKKW[Dip]K-NH2) [LTX-315] | – | – | – | – | – | – | – | – | – | markedly increased | markedly increased
